Experimental data: ChEMBL document CHEMBL3351493, “Beta-aminoketones as prodrugs for selective irreversible inhibitors of type-1 methionine aminopeptidases” (Bioorg Med Chem Lett, 2014)
Active and inactive are the calls of the source. The calls are words filed in the database; no cut-off is given here.

Key:
[1] = tested on: SW707; assay: Cytotoxicity against human SW707 cells at 1.6 to 100 ug/ml after 72 hrs by crystal violet assay; assay type: functional, cell-based
[2] = tested on: A 172; assay: Cytotoxicity against human A172 cells at 1.6 to 100 ug/ml after 72 hrs by crystal violet assay; assay type: functional, cell-based
[3] = tested on: MeWo; assay: Cytotoxicity against human MeWo cells at 1.6 to 100 ug/ml after 72 hrs by crystal violet assay; assay type: functional, cell-based
[4] = tested on: A-431; assay: Cytotoxicity against human A431 cells at 1.6 to 100 ug/ml after 72 hrs by crystal violet assay; assay type: functional, cell-based
[5] = tested on: CAPAN-1; assay: Cytotoxicity against human Capan1 cells at 1.6 to 100 ug/ml after 72 hrs by crystal violet assay; assay type: functional, cell-based
[6] = Cytotoxicity against human Flow 2002 cells at 1.6 to 100 ug/ml after 72 hrs by crystal violet assay; assay type: cell-based; conditions: flow 2002, 72 h
[7] = tested on: Calu-6; assay: Cytotoxicity against human Calu6 cells at 1.6 to 100 ug/ml after 72 hrs by crystal violet assay; assay type: functional, cell-based
[8] = tested on: BT-474; assay: Cytotoxicity against human BT474 cells at 1.6 to 100 ug/ml after 72 hrs by crystal violet assay; assay type: functional, cell-based
[9] = tested on: Ca-Ski; assay: Cytotoxicity against human CaSki cells at 1.6 to 100 ug/ml after 72 hrs by crystal violet assay; assay type: functional, cell-based
[10] = tested on: HaCaT; assay: Cytotoxicity against human HaCaT cells at 1.6 to 100 ug/ml after 72 hrs by crystal violet assay; assay type: cell-based
[11] = Glutathione reactivity assessed as second-order rate constant at 250 uM at pH 6.0 by HPLC-UV method
[12] = tested on: Escherichia coli; assay: Antimicrobial activity against Escherichia coli BL21(DE3) assessed as inhibition of bacterial growth incubated at 37 degC for 7 hrs; assay type: functional

SMILES | Activity [1] | Activity [2] | Activity [3] | Activity [4] | Activity [5] | Activity [6] | Activity [7] | Activity [8] | Activity [9] | Activity [10] | K [11] [M⁻¹ s⁻¹] | MIC [12] [µg/mL]
C=C1CCc2ccc(OC)cc2C1=O | Active | Active | Active | Active | Active | Toxic | Active | Active | Active | Toxic | 1.7 | 
NC[C@H]1O[C@H](O[C@H]2[C@H](O)[C@@H](O[C@H]3O[C@H](CO)[C@@H](O)[C@H](N)[C@H]3O)[C@H](N)C[C@@H]2N)[C@H](O)[C@@H](O)[C@@H]1O.O=S(=O)(O)O [KANAMYCIN SULFATE] |  |  |  |  |  |  |  |  |  |  |  | 10
CN(C)[C@@H]1C(O)=C(C(N)=O)C(=O)[C@@]2(O)C(O)=C3C(=O)c4c(O)cccc4[C@@](C)(O)[C@H]3C[C@@H]12.Cl [TETRACYCLINE HYDROCHLORIDE] |  |  |  |  |  |  |  |  |  |  |  | 1
C=C1CCc2ccccc2C1=O | Active | Active | Active | Active | Active | Toxic | Active | Active | Active | Toxic | 1.4 | 
C[C@@H]1O[C@@H]1P(=O)([O-])[O-].[Na+].[Na+] [PHOSPHOMYCIN DISODIUM] |  |  |  |  |  |  |  |  |  |  |  | 20
